Laboratory results taken from patent US12297244B2, “Systems and methods for inhibiting γ-secretase production of amyloid-β peptides” (Rensselaer Polytechnic Institute, priority 2020, dated 2025).
Like-named read-outs stand apart in the source and are kept apart here.

Key:
[1] = molecular target: T1, γ-secretase in the HeLa membrane (Homo sapiens, UniProt P05067); assay: AlphaLISA γ-secretase assay with biotinylated Sb4 (APP sequence) substrate; assay type: biochemical; parameters: fused on or other part: Biotin label on Sb4; conditions: from lower IC50 for Aβ42 than Aβ40
Description: (§1) Referring now to FIG. 1, and without wishing to be bound by theory, γ-secretase cleaves within the transmembrane domain of the amyloid precursor protein (APPTM) to release Aβ, which aggregates to form neurotoxic oligomers and fibrils. […] Formula III decreased the production of Aβ40 and Aβ42 by γ-secretase in a dose dependent manner (FIG. 2).

[2] = molecular target: T1, γ-secretase in the HeLa membrane; assay: as above; assay type: biochemical; parameters: other: γ-secretase in HeLa membrane, Sb4 substrate; fused on or other part: Biotin label on Sb4; conditions: γ-secretase in HeLa membrane, Sb4 substrate
Description: as §1

T1 sequence (P05067 whole entry, the tested form may be a part): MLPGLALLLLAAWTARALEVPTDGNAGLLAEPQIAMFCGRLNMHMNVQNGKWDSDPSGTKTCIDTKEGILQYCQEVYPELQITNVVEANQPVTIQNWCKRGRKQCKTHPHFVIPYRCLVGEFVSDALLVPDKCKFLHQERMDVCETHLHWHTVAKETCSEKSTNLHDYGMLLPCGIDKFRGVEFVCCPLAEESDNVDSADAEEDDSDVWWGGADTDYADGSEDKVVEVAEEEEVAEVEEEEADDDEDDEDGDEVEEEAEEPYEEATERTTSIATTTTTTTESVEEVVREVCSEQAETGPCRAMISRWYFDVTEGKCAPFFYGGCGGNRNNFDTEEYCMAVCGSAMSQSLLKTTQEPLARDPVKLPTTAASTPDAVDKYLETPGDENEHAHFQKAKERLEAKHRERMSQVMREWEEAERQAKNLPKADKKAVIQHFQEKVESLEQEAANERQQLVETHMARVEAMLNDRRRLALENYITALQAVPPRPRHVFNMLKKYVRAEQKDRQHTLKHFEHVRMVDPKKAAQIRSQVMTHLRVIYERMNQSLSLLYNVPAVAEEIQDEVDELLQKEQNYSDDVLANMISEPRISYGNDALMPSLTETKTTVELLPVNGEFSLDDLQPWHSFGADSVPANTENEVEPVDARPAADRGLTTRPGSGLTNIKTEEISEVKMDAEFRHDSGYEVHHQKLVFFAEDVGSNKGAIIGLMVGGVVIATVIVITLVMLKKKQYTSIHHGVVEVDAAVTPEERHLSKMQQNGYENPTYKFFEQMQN

For `O=C(C=COc1ccc2ccccc2c1)c1ccc(F)cc1` [Formula III], the “selectivity in inhibiting Aβ42 production over Aβ40” value [1] was “selectivity in inhibiting Aβ42 production over Aβ40”, the IC50 ([2]; read-out: IC50 for the inhibition of Aβ40 production) was 3900 nM and the IC50 ([2]; read-out: IC50 for the inhibition of Aβ42 production) was 1900 nM.
